Read-outs that look alike come from different tables or passages of the source.
Experiments:
SOS1 = target: T1, SOS1 (Homo sapiens, UniProt Q07889); test: SOS-catalyzed nucleotide exchange assay (HTRF, SOS1-mediated GTP loading of KRAS G12D); format: biochemical
T1 construct: HIS-SOS1cat (160 nM; Cytoskeleton, US); His (N); purchased Cytoskeleton
T1 sequence (Q07889 564-1049 limits assumed): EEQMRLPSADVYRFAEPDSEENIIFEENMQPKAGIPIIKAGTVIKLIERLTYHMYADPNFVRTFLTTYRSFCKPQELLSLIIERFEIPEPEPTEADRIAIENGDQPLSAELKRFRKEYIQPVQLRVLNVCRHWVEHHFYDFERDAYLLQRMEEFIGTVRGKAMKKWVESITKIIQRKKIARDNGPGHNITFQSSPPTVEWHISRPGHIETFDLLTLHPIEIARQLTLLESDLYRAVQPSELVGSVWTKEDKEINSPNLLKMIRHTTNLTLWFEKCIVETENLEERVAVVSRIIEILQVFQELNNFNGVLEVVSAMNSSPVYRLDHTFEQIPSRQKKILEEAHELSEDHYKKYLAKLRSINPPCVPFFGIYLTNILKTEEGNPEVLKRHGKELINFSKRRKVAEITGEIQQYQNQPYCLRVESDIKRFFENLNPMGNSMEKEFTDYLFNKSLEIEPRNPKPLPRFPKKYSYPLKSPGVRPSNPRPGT

KRAS G12C::SOS1 = target: T2, KRAS G12C::SOS1 (Homo sapiens, UniProt Q07889); test: KRAS G12C::SOS1 protein-protein interaction (PPI) inhibition assay (HTRF); format: binding
T2 construct: purchased CISBIO 64KRASG12PEH
T2 sequence (Q07889 1-1333): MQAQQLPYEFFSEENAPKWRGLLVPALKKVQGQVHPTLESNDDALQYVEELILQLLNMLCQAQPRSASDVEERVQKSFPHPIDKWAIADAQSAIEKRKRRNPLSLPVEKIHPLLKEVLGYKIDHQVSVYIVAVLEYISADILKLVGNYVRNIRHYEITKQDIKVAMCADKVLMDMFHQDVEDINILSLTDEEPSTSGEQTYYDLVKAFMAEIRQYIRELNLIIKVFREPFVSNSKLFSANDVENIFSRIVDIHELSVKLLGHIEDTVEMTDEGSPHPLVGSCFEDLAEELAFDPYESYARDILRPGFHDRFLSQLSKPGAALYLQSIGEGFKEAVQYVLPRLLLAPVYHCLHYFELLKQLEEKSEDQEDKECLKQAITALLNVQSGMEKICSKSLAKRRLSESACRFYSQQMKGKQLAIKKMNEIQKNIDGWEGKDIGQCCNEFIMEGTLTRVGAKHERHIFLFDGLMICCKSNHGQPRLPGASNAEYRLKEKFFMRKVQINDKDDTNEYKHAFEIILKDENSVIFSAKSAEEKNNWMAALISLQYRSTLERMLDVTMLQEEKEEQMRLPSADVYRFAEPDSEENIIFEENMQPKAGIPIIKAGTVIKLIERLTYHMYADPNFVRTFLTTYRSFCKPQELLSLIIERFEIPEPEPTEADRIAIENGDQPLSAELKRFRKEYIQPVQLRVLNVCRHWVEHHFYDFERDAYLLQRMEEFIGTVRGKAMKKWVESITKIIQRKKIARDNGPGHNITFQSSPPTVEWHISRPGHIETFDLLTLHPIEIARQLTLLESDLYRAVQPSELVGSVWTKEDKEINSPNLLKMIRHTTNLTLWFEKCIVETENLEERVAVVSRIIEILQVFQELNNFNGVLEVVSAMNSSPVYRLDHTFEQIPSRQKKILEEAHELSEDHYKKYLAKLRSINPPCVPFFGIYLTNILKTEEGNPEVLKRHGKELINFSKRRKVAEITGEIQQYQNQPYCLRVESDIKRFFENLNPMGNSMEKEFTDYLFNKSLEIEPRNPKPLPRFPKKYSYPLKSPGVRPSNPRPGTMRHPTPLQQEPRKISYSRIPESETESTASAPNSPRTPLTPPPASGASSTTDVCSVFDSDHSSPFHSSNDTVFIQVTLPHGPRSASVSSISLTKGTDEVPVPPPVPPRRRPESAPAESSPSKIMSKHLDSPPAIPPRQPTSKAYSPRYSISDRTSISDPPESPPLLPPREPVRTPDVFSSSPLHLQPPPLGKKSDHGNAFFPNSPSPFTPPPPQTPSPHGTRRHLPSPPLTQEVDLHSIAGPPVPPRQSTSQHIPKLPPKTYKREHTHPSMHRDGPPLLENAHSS
Summary of the method: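 Compounds, at eight 3-fold dilutions from 3 µM, were mixed with GTP-loaded Tag1-KRAS G12C, Tag2-SOS1 and a terbium-cryptate donor plus XL665 acceptor antibody pair. After 2 h at room temperature, time-resolved FRET reported the KRAS–SOS1 interaction.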

[1] = system: lung cancer cell line NCI-H358 having the KRAS G12C variant; test: Cancer cell growth inhibition, 3D spheroids (CellTiter-Glo 3D); format: cell-based; conditions: read-out: H358 cell viability
Description: Thereafter, the plate with the cells cultured was adapted to room temperature for 10 minutes, and then 50 µL of CellTiter-Glo® 3D Cell Viability Assay (PROMEGA, G9683) solution was dispensed, and reacted on a horizontal stirrer at a speed of 300 RPM for 30 minutes to induce the cell lysis. […] Thereafter, based on the measured values, the degree of cell growth in the well treated with each compound was calculated when the final cell density value of the well not treated with the test substance was set to 100%.

[2] = GST-KRAS G12D, HIS-SOS1cat, compound 128 pM to 10 µM, read-out: SOS-catalyzed nucleotide exchange assay
[3] = 8 concentrations from 3 µM, three replicates, read-out: KRAS G12C::SOS1 PPI
[4] = Homo sapiens, NCI-H358, 120 h, 3D spheroids, 0.002-10 µM, 5 days

| Molecule | IC50 (SOS1; [2]) | IC50 (KRAS G12C::SOS1; [3]) | IC50 [1, 4] | further results |
| --- | --- | --- | --- | --- |
| C[C@@H](NC(=O)c1ccc(=O)n(-c2cncc(-c3ccnn3C)c2)n1)c1cccc(C(F)(F)F)c1F [Example 1-17, N-[(1R)-1-[2-fluoro-3-(trifluoromethyl)phenyl]ethyl]-1-[5-(2-methylpyrazol-3-yl)-3-pyridyl]-6-oxo-pyridazine-3-carboxamide] | 50 to 150 nM | > 150 nM | < 1000 nM |  |
| C[C@@H](NC(=O)c1cc(-c2ccccc2)c(=O)n(-c2cncc(-c3cnnn3C)c2)n1)c1cccc(C(F)(F)F)c1F [Example 1-63, N-{(R)-1-[2-fluoro-3-(trifluoromethyl)phenyl]ethyl}-1-[5-(1-methyl-1H-1,2,3-triazol-5-yl)-3-pyridyl]-6-oxo-5-phenyl-1,6-dihydropyridazine-3-carboxamide] | 50 to 150 nM | 50 to 150 nM | < 1000 nM |  |
| C[C@@H](NC(=O)c1ccc(=O)n(-c2cnc(N3CCOCC3)c(-c3cnnn3C)c2)n1)c1cccc(C(F)(F)F)c1F [Example 1-46, N-{(R)-1-[2-fluoro-3-(trifluoromethyl)phenyl]ethyl}-1-[5-(1-methyl-1H-1,2,3-triazol-5-yl)-6-morpholino-3-pyridyl]-6-oxo-1,6-dihydropyridazine-3-carboxamide] |  |  |  | IC50 (SOS1; read-out: SOS-catalyzed nucleotide exchange assay, GST-KRAS G12D, HIS-SOS1cat, compound 128 pM to 10 µM): 50 to 150 nM; IC50 (KRAS G12C::SOS1; read-out: KRAS G12C::SOS1 PPI, 8 concentrations from 3 µM, three replicates): 50 to 150 nM; IC50 ([1]; Homo sapiens, NCI-H358, 120 h): < 1000 nM |
| Cc1cc(C(=O)N[C@H](C)c2cccc(C(F)(F)F)c2F)nn(-c2cncc(-c3cnnn3C)c2)c1=O [Example 7-3, N-{ (R)-1-[2-fluoro-3-(trifluoromethyl)phenyl]ethyl}-5-methyl-1-[5-(1-methyl-1H-1,2,3-triazol-5-yl)-3-pyridyl]-6-oxo-1,6-dihydropyridazine-3-carboxamide] | 50 to 150 nM | < 50 nM | < 1000 nM |  |
| Cc1cc(C(=O)N[C@H](C)c2cccc(C(F)(F)CO)c2F)nn(-c2cncc(-c3cnnn3C3CC3)c2)c1=O [Example 1-40, N-{(R)-1-[3-(1,1-difluoro-2-hydroxyethyl)-2-fluorophenyl]ethyl}-1-[5-(1-cyclopropyl-1H-1,2,3-triazol-5-yl)-3-pyridyl]-5-methyl-6-oxo-1,6-dihydropyridazine-3-carboxamide] | < 50 nM | < 50 nM | < 1000 nM |  |
| N-[(1R)-1-[5-amino-3-(difluoromethyl)-2-fluoro-phenyl]ethyl]-5-methyl-1-[5-(3-methyltriazol-4-yl)-3-pyridyl]-6-oxo-pyridazine-3-carboxamide [Example 2-3] | < 50 nM | < 50 nM |  | IC50 ([1]; 3D spheroids, 0.002-10 µM, 5 days): < 1000 nM |
| [2H]C([2H])([2H])n1nncc1-c1cncc(-n2nc(C(=O)N[C@H](C)c3cccc(C(F)(F)F)c3F)ccc2=O)c1 [Example 1-5, N-[(1R)-1-[2-fluoro-3-(trifluoromethyl)phenyl]ethyl]-6-oxo-1-[5-[3-(trideuteriomethyl)triazol-4-yl]-3-pyridyl]pyridazine-3-carboxamide] |  |  | < 1000 nM |  |
| C[C@@H](NC(=O)c1ccc(=O)n(-c2cncc(-c3cnnn3C)c2)n1)c1cc(N)cc(C(F)F)c1 [Example 2, N-[(1R)-1-[3-amino-5-(difluoromethyl)phenyl]ethyl]-1-[5-(3-methyltriazol-4-yl)-3-pyridyl]-6-oxo-pyridazine-3-carboxamide] |  |  | < 1000 nM | IC50 (SOS1): 50 to 150 nM; IC50 (KRAS G12C::SOS1): 50 to 150 nM |
| Cc1ncc(-n2nc(C(=O)N[C@H](C)c3cccc(C(F)(F)F)c3F)ccc2=O)cc1-c1cnnn1C [Example 1-26, N-[(1R)-1-[2-fluoro-3-(trifluoromethyl)phenyl]ethyl]-1-[6-methyl-5-(3-methyltriazol-4-yl)-3-pyridyl]-6-oxo-pyridazine-3-carboxamide] | 50 to 150 nM | 50 to 150 nM | < 1000 nM |  |
| CCn1nncc1-c1cncc(-n2nc(C(=O)N[C@H](C)c3cccc(C(F)(F)F)c3F)cc(CO)c2=O)c1 [Example 6-4, N-{ (R)-1-[2-fluoro-3-(trifluoromethyl)phenyl]ethyl}-1-[5-(1-ethyl-1H-1,2,3-triazol-5-yl)-3-pyridyl]-5-(hydroxymethyl)-6-oxo-1,6-dihydropyridazine-3-carboxamide] | < 50 nM | 50 to 150 nM | < 1000 nM |  |
| C[C@@H](NC(=O)c1ccc(=O)n(-c2cncc(-c3cnnn3C3CC3)c2)n1)c1cccc(C(F)(F)CO)c1F [Example 1-53, N-[(1R)-1-[3-(1,1-difluoro-2-hydroxy-ethyl)-2-fluoro-phenyl]ethyl]-1-[5-(1-cyclopropyl-1H-1,2,3-triazol-5-yl)-3-pyridyl]-6-oxo-pyridazine-3-carboxamide] | < 50 nM | < 50 nM | < 1000 nM |  |
| [2H]C([2H])([2H])n1nncc1-c1cncc(-n2nc(C(=O)N[C@H](C)c3cccc(C(F)(F)CO)c3F)ccc2=O)c1 [Example 1-7, N-[(1R)-1-[3-(1,1-difluoro-2-hydroxy-ethyl)-2-fluoro-phenyl]ethyl]-6-oxo-1-[5-[3-(trideuteriomethyl)triazol-4-yl]-3-pyridyl]pyridazine-3-carboxamide] | < 50 nM | < 50 nM | < 1000 nM |  |
| CC(C)n1nncc1-c1cncc(-n2nc(C(=O)N[C@H](C)c3cccc(C(F)(F)CO)c3F)ccc2=O)c1 [Example 1-52, N-[(1R)-1-[3-(1,1-difluoro-2-hydroxy-ethyl)-2-fluoro-phenyl]ethyl]-1-[5-(1-isopropyl-1H-1,2,3-triazol-5-yl)-3-pyridyl]-6-oxo-pyridazine-3-carboxamide] | < 50 nM | 50 to 150 nM | < 1000 nM |  |
| C[C@@H](NC(=O)c1cc(C2=CCCCC2)c(=O)n(-c2cncc(-c3cnnn3C)c2)c1)c1cccc(C(F)(F)F)c1F [Example 15, N-{(R)-1-[2-fluoro-3-(trifluoromethyl)phenyl]ethyl}-5-(1-cyclohexen-1-yl)-5'-(1-methyl-1H-1,2,3-triazol-5-yl)-6-oxo-1H-[1,3'-bipyridyl]-3-carboxamide] | < 50 nM | < 50 nM | < 1000 nM |  |
| C[C@@H](NC(=O)c1ccc(=O)n(-c2cncc(-c3cnnn3C)c2)n1)c1cccc(C2(C)CC2)c1F [Example 1-33, N-[(1R)-1-[2-fluoro-3-(1-methylcyclopropyl)phenyl]ethyl]-1-[5-(3-methyltriazol-4-yl)-3-pyridyl]-6-oxo-pyridazine-3-carboxamide] |  | > 150 nM | > 3000 nM |  |

— patent EP4667464A1 (Cyrus Therapeutics Inc., priority 2023, dated 2024)
